In patent publication US10092547B2, “Substituted aliphanes, cyclophanes, heteraphanes, heterophanes, hetero- heteraphanes and metallocenes useful for treating HCV infections” (priority 2011, dated 2018):

Legend:
[1] = test system: HCV replicon (NS5A1b) in Huh-7 cells; assay: microbe, parasite or virus in culture; type: cell-based; conditions: Hepatitis C virus, 72 h; NS5A1b; HCV replicon-containing Huh-7 cells, three days; read-out: EC50 (μM) NS5A1b
Protocol: (§1) Compounds claimed herein are tested for the ability to inhibit viral replication of the Hepatitis C replicon in cultured cells in which the HCV replicon construct has been incorporated. The HCV replicon system was described by Bartenschlager, et. al (Science, 285, pp. 110-113 (1999)). The replicon system is predictive of in vivo anti-HCV activity; compounds that are active in humans uniformly evidence activity in the replicon assay.
(§2) In this assay HCV replicon containing cells are treated with different concentrations of the test compound to ascertain the ability of the test compound to suppress replication of the HCV replicon. As a positive control, HCV replicon-containing cells are treated with different concentrations of interferon alpha, a known inhibitor of HCV replication. The replicon assay system includes Neomycin Phosphotransferase (NPT) as a component of the replicon itself in order to detect the transcription of replicon gene products in the host cell. Cells in which the HCV replicon is actively replicating have high levels of NPT; the level of NPT is proportional to HCV replication. […] The NPT level of each sample is measured using a captured ELISA.
(§3) A protocol for testing compounds for the ability to inhibit viral replication of the Hepatitis C replicon cultured cells in which the replicon construct has been incorporated, follows.
(§4) The HCV replicon contains, 5′-3′, the HCV-IRES, the neomycin phosphotransferase (neo) gene, the IRES of encephalomyocarditis virus, which directs translation of HCV sequences NS3 to NS5B, and the 3′-NTR. The sequence of the HCV replicon has been deposited in GenBank (Accession no. AJ242652).
(§5) The replicon is transfected into Huh-7 cells using standard methods such as electroporation.
(§6) The equipment and materials include, but are not limited to, Huh-7 HCV replicon-containing cells, maintenance media (DMEM (Dulbecco's modified Eagle media) supplemented with 10% FBS, L-glutamine, non-essential amino acids, penicillin (100 units/ml), streptomycin (100 micrograms/ml), and 500 micrograms/ml of Geneticin (G418), screening media (DMEM supplemented with 10% FBS, L-glutamine, non-essential amino acids, penicillin (100 units/ml) and streptomycin (100 micrograms/ml), 96 well tissue culture plates (flat bottom), 96 well plates (U bottom for drug dilution), Interferon alpha for positive control, fixation reagent (such as methanol: acetone), primary antibody (rabbit anti-NPTII), secondary antibody: Eu-N1 1, and enhancement solution.
(§7) HCV replicon-containing cells support high levels of viral RNA replicon replication when their density is suitable. Over-confluency causes decreased viral RNA replication. Therefore, cells must be kept growing in log phase in the presence of 500 micrograms/ml of G418. Generally, cells should be passed twice a week at 1:4-6 dilution. Cell maintenance is conducted as follows:
(§8) HCV replicon-containing cells are examined under a microscope to ensure that cells growing well. Cells are rinsed once with PBS and 2 ml trypsin is added. The cell/trypsin mixture is incubated at 37° C. in a CO2 incubator for 3-5 minutes. After incubation 10 ml of complete media is added to stop the trypsinization reaction. Cells are blown gently, put into a 15 ml tube, and spun at 1200 rpm for 4 minutes. The trypsin/medium solution is removed. Medium (5 ml) is added and the cells are mixed carefully. The cells are counted.
(§9) The cells are then seeded onto 96-well plates at a density of 6000-7500 cells/100 microliters/well (6-7.5×10^5 cells/10 ml/plate). The plates are then incubated at 37° C. in a 5% CO2 incubator.
(§10) Cells are examined under a microscope approximated 24 hours after seeding and prior to adding drugs. If counting and dilution were performed correctly, cells are 60-70% confluent and nearly all cells should attach and spread evenly in the well.
(§11) HCV replicon-containing cells are rinsed with once PBS once; 2 mls of trypsin are then added. Cells are incubated at 37° C. in a 5% CO2 incubator for 3-5 minutes. […]

HCV replicon (NS5A1b) = assay: microbe, parasite or virus in culture; type: cell-based; conditions: Hepatitis C virus, 72 h, HCV replicon-containing cells, three days
Protocol: as §1, §2, §3, §4, §5, §6, §7, §8, §9, §10, §11

SMILES: COC(=O)N[C@H](C(=O)N1C2CCC(C2)[C@H]1c1nc2cc(-c3cc4ccc3CCc3ccc(c(-c5ccc6[nH]c([C@@H]7C8CCC(C8)N7C(=O)[C@@H](NC(=O)OC)C(C)C)nc6c5)c3)CC4)ccc2[nH]1)C(C)C [Compound 42]
- EC50 [1]: < 3.2 nM
- EC50 (HCV replicon (NS5A1b)): 0.0044 µM

SMILES: C=CCOC(=O)N[C@@H](CCSC)C(=O)N1CCC[C@H]1c1nc(-c2ccc(-c3cc4ccc3CCc3ccc(c(-c5ccc(-c6c[nH]c([C@@H]7CCCN7C(=O)[C@H](CCSC)NC(=O)OCC=C)n6)cc5)c3)CC4)cc2)c[nH]1 [Compound 57]
- EC50 [1]: > 1000 nM

SMILES: C=CCOC(=O)N1CCC[C@H]1C(=O)N1CCC[C@H]1c1nc(-c2ccc(-c3cc4ccc3CCc3ccc(c(-c5ccc(-c6c[nH]c([C@@H]7CCCN7C(=O)[C@@H]7CCCN7C(=O)OCC=C)n6)cc5)c3)CC4)cc2)c[nH]1 [Compound 58]
- EC50 [1]: > 1000 nM

SMILES: C=CCOC(=O)N[C@H](C(=O)N1CCC[C@H]1c1nc(-c2ccc(-c3cc4ccc3CCc3ccc(c(-c5ccc(-c6c[nH]c([C@@H]7CCCN7C(=O)[C@@H](NC(=O)OCC=C)c7ccccc7)n6)cc5)c3)CC4)cc2)c[nH]1)c1ccccc1 [Compound 59]
- EC50 [1]: 548 nM

SMILES: COC(=O)N[C@H](C(=O)N1[C@H](c2nc(-c3ccc(-c4cc5ccc4CCc4ccc(c(-c6ccc(-c7c[nH]c([C@@H]8C[C@@H]9CCCC[C@@H]9N8C(=O)[C@@H](NC(=O)OC)C(C)C)n7)cc6)c4)CC5)cc3)c[nH]2)C[C@@H]2CCCC[C@@H]21)C(C)C [Compound 60]
- EC50 [1]: 128 nM

SMILES: COC(=O)N[C@@H](CCSC)C(=O)N1[C@H](c2nc(-c3ccc(-c4cc5ccc4CCc4ccc(c(-c6ccc(-c7c[nH]c([C@@H]8C[C@@H]9CCCC[C@@H]9N8C(=O)[C@H](CCSC)NC(=O)OC)n7)cc6)c4)CC5)cc3)c[nH]2)C[C@@H]2CCCC[C@@H]21 [Compound 61]
- EC50 [1]: 75.2 nM

SMILES: COC(=O)N[C@H](C(=O)N1[C@H](c2nc(-c3ccc(-c4cc5ccc4CCc4ccc(c(-c6ccc(-c7c[nH]c([C@@H]8C[C@@H]9CCCC[C@@H]9N8C(=O)[C@@H](NC(=O)OC)c8ccccc8)n7)cc6)c4)CC5)cc3)c[nH]2)C[C@@H]2CCCC[C@@H]21)c1ccccc1 [Compound 62]
- EC50 [1]: 75 nM

SMILES: COC(=O)N1CCC[C@H]1C(=O)N1[C@H](c2nc(-c3ccc(-c4cc5ccc4CCc4ccc(c(-c6ccc(-c7c[nH]c([C@@H]8C[C@@H]9CCCC[C@@H]9N8C(=O)[C@@H]8CCCN8C(=O)OC)n7)cc6)c4)CC5)cc3)c[nH]2)C[C@@H]2CCCC[C@@H]21 [Compound 63]
- EC50 [1]: 899 nM

SMILES: COC(=O)N[C@H](C(=O)N1C[C@H](C)C[C@H]1c1nc2cc(-c3cc4ccc3CCc3ccc(c(-c5ccc6[nH]c([C@@H]7C[C@@H](C)CN7C(=O)[C@@H](NC(=O)OC)C(C)C)nc6c5)c3)CC4)ccc2[nH]1)C(C)C [Compound 66]
- EC50 [1]: 0.005 nM

SMILES: COC(=O)N[C@H](C(=O)N1C[C@H](F)C[C@H]1c1nc2cc(-c3cc4ccc3CCc3ccc(c(-c5ccc6[nH]c([C@@H]7C[C@@H](F)CN7C(=O)[C@@H](NC(=O)OC)C(C)C)nc6c5)c3)CC4)ccc2[nH]1)C(C)C [Compound 87]
- EC50 [1]: 6.53 nM
- EC50 (HCV replicon (NS5A1b)): 0.0184 µM

SMILES: COC(=O)N[C@@H](CCSC)C(=O)N1C[C@H](F)C[C@H]1c1nc2cc(-c3cc4ccc3CCc3ccc(c(-c5ccc6[nH]c([C@@H]7C[C@@H](F)CN7C(=O)[C@H](CCSC)NC(=O)OC)nc6c5)c3)CC4)ccc2[nH]1 [Compound 88]
- EC50 [1]: 6.43 nM
- EC50 (HCV replicon (NS5A1b)): 0.0618 µM

SMILES: CC[C@H](C)[C@H](NC(=O)OC)C(=O)N1[C@H](c2nc3cc(-c4cc5ccc4CCc4ccc(c(-c6ccc7[nH]c([C@@H]8C[C@@H]9CCCC[C@@H]9N8C(=O)[C@@H](NC(=O)OC)[C@@H](C)CC)nc7c6)c4)CC5)ccc3[nH]2)C[C@@H]2CCCC[C@@H]21 [Compound 102]
- EC50 [1]: 11.9 nM
- EC50 (HCV replicon (NS5A1b)): 0.0358 µM

SMILES: CC[C@H](C)[C@H](NC(=O)OC)C(=O)N1CCC[C@H]1c1nc2cc(-c3cc4ccc3CCc3ccc(c(-c5ccc6[nH]c([C@@H]7CCCN7C(=O)[C@@H](NC(=O)OC)[C@@H](C)CC)nc6c5)c3)CC4)ccc2[nH]1 [Compound 103]
- EC50 [1]: < 3.17 nM
- EC50 (HCV replicon (NS5A1b)): 0.47 µM

SMILES: COC(=O)N[C@H](C(=O)N1CCC[C@H]1c1nc2cc(-c3cc4ccc3CCc3ccc(c(-c5ccc6[nH]c([C@@H]7CCCN7C(=O)[C@@H](NC(=O)OC)[C@@H](C)OC)nc6c5)c3)CC4)ccc2[nH]1)[C@@H](C)OC [Compound 109]
- EC50 [1]: 8.83 nM
- EC50 (HCV replicon (NS5A1b)): 0.0118 µM

SMILES: COC(=O)N[C@@H](CCC#N)C(=O)N1[C@H](c2nc3cc(-c4cc5ccc4CCc4ccc(c(-c6ccc7[nH]c([C@@H]8C[C@@H]9CCCC[C@@H]9N8C(=O)[C@H](CCC#N)NC(=O)OC)nc7c6)c4)CC5)ccc3[nH]2)C[C@@H]2CCCC[C@@H]21 [Compound 110]
- EC50 [1]: 0.006 nM

SMILES: COC(=O)N[C@H](C(=O)N1[C@H](c2nc3cc(-c4cc5ccc4CCc4ccc(c(-c6ccc7[nH]c([C@@H]8C[C@@H]9CCCC[C@@H]9N8C(=O)[C@@H](NC(=O)OC)[C@@H](C)OC)nc7c6)c4)CC5)ccc3[nH]2)C[C@@H]2CCCC[C@@H]21)[C@@H](C)OC [Compound 111]
- EC50 [1]: 0.005 nM

SMILES: COC(=O)N[C@H](C(=O)N1[C@H](c2nc3cc(-c4cc5ccc4CCc4ccc(c(-c6ccc7[nH]c([C@@H]8C[C@@H]9CCCC[C@@H]9N8C(=O)[C@@H](NC(=O)OC)[C@@H](C)O)nc7c6)c4)CC5)ccc3[nH]2)C[C@@H]2CCCC[C@@H]21)[C@@H](C)O [Compound 128]
- EC50 [1]: 0.008 nM

SMILES: COC(=O)N[C@H](C(=O)N1C(c2nc3ccc(-c4cc5ccc4CCc4ccc(c(-c6ccc7nc(C8C[C@@H]9CCCC[C@@H]9N8C(=O)[C@@H](NC(=O)OC)C(C)C)n(COC(=O)[C@@H](N)C(C)C)c7c6)c4)CC5)cc3n2COC(=O)[C@@H](N)C(C)C)C[C@@H]2CCCC[C@@H]21)C(C)C (stereo partly drawn) [Compound 130]
- EC50 [1]: 0.009 nM
